Data reported in patent US9663514B2 (Takeda Pharmaceutical Company Limited, priority 2011, dated 2017).

Molecular target: T1, SYK (Homo sapiens, UniProt P43405)
T1 construct: The SYK kinase domain (residues 356-635) is amplified via PCR; made in house; host or cells: Sf9 insect cells (baculovirus, pFastBac1)
Test: SYK inhibition: in vitro assay of SYK-mediated phosphorylation of FAM-labeled substrate (Caliper LC-3000)
Type: biochemical
Conditions: SYK kinase domain (residues 356-635); 2.4 nM SYK and 45 μM ATP, 3 μM 5FAM-KKKKEEIYFFFG-NH2, RT 60 min, pH 7.3; pIC50 = −log(IC50), IC50 molar
Method: The ability of compounds to inhibit SYK activity may be assessed using a variety of methods, including in vitro and in vivo assays. The following in vitro assay measures a test compound's ability to inhibit SYK-mediated phosphorylation of a FAM-labeled SYK-specific substrate (5FAM-KKKKEEIYFFFG-NH2).
SYK protein is prepared from cDNA encoding human spleen tyrosine kinase and is expressed in insect cells using a baculovirus expression vector. The cDNA (IMAGE: 3542895) is purchased from Open Biosystems. The SYK kinase domain (residues 356-635) is amplified via PCR and cloned into plasmid pFastBacl (Invitrogen) at BamHI/XbaI sites. Recombinant plasmid encoding Met-Ala-Lys-SYK(356-635)-HHHHHH is sequenced and transformed into E. coli DH10Bac strain. The recombinant bacmid DNA is isolated and transfected into Sf9 insect cells. Recombinant virus is harvested 72 h after transfection. High titer viral stock is prepared by infecting Sf9 cells at a multiplicity of infection (MOI) of approximately 0.01. A suspension of Sf9 cells (10 L) is infected with recombinant virus (MOI=5) and is incubated in a Wave Bioreactor (GE-Healthcare) for 48 h. The cells are harvested and stored at −80° C.
To purify the expressed protein, the frozen Sf9 cells (10 L) are broken into small (<1 cm) particles and suspended in a lysis buffer (300 mL) containing 20 mM Tris (pH 7.6), 0.25 mM TCEP, 100 mM NaCl, 5% glycerol and a protease inhibitor. The suspension is stirred at RT until completely thawed, lysed an additional 2-4 min on a rotary blade homogenizer, and then centrifuged at 4200 g for 1 h. Following centrifugation, the supernatant is poured through cheese cloth and combined with a nickel chelating resin (Probond Resin™, Invitrogen) which is pre-equilibrated in a wash buffer containing 10 mM Tris (pH 7.6), 0.25 mM TCEP, 300 mM NaCl, 5% glycerol, and 20 mM imidazole. The mixture is agitated for 3 h in a cold room and then centrifuged at 900 g for 10 min. The resin is dispersed in wash buffer (50 mL), centrifuged for 10 min at 900 g, re-dispersed in a small amount of wash buffer (5 mL), and then pour into a disposable Poly-Prep chromatography column, through which wash buffer is passed by gravity until no protein is observed in coomassie buffer (about 120 mL of wash buffer). An elution buffer (30 mL) containing 10 mM HEPES (pH 7.4), 150 mM NaCl, 10% glycerol, 5 mM DTT, and 400 mM imidazole is used to elute the SYK protein from the resin. The eluate is concentrated (5 mL) and further purified on a Superdex 200 column (1.2 mL/min for 160 min, 10 mM HEPES (pH 7.4), 10 mM NaCl, 10 mM MgCl, 0.1 mM EDTA, and 0.25 mM TCEP). The chromatographed fractions are run on SDS-PAGE and the requisite fractions are pooled and concentrated. Final delivery buffer is 10 mM HEPES (pH 7.4), 10 mM Methione, 150 mM NaCl, 10% glycerol, 5 mM DTT.
SYK inhibition is determined using a black 384 well plate format in buffer containing 50 mM HEPES, 10 mM NaCl, 10 mM MgCl2, 0.2 mM EDTA, 0.01% EDA (Brij®35), 1 mM DTT, and 0.1 mg/ml BSA at pH 7.3. Each test compound is prepared in DMSO using 2-fold serial dilutions for 11 data points, which are added to the buffer so that each dilution contains 3% DMSO. To each well is added 2 μL of 3 μM SFAM-KKKKEEIYFFFG-NH2 (in buffer), 2 μL of diluted test compound (3% DMSO in buffer), and 2 μL of 2.4 nM SYK and 45 μM ATP (in buffer). The reaction mixture is incubated at RT for 60 min, and quenched by adding 50 mM Hepes, 30 mM EDTA, 0.1% Triton X-100 (pH 7.3). To quantify the fluorescent-labeled substrate and product following reaction, the test plate is loaded on a Caliper LC-3000, which measures percent of conversion by microfluidic-based separation. Corresponding IC50 values are calculated by non-linear curve fitting of the compound concentrations and percent of inhibition to the standard IC50 equation and reported as pIC50, i.e., −log(IC50), where IC50 is molar concentration.

Structure (SMILES) | IC50 [nM]
N#Cc1ccc(-c2nc(N[C@@H]3CCOC[C@@H]3N)c(F)c3c2C(=O)NC3)s1 [Example 8, 5-(6-((3R,4R)-3-Aminotetrahydro-2H-pyran-4-ylamino)-7-fluoro-3-oxo-2,3-dihydro-1H-pyrrolo[3,4-c]pyridin-4-yl)thiophene-2-carbonitrile] | 20
Cc1ccn2ncc(-c3nc(N[C@@H]4CCCC[C@@H]4N)c(F)c4c3C(=O)NC4)c2c1 [Example 59, 6-(((1R,2S)-2-Aminocyclohexyl)amino)-7-fluoro-4-(5-methylpyrazolo[1,5-a]pyridin-3-yl)-1H-pyrrolo[3,4-c]pyridin-3(2H)-one] | 2.51
N[C@H]1CCCC[C@H]1Nc1nc(-c2ccns2)c2c(c1F)CNC2=O [Example 5, 6-((1R,2S)-2-Aminocyclohexylamino)-7-fluoro-4-(isothiazol-5-yl)-1H-pyrrolo[3,4-c]pyridin-3 (2H)-one] | 3.98
CCn1cc(-c2nc(N[C@@H]3CCOC[C@@H]3N)c(F)c3c2C(=O)NC3)cn1 [Example 38, 6-((3R,4R)-3-Aminotetrahydro-2H-pyran-4-ylamino)-4-(1-ethyl-1H-pyrazol-4-yl)-7-fluoro-1H-pyrrolo[3,4-c]pyridin-3(2H)-one] | 20
N[C@H]1COCC[C@H]1Nc1nc(C#Cc2ccccc2)c2c(c1F)CNC2=O [Example 44, 6-((3R,4R)-3-Aminotetrahydro-2H-pyran-4-ylamino)-7-fluoro-4-(phenylethynyl)-1H-pyrrolo[3,4-c]pyridin-3(2H)-one] | 63.1
Cc1ccn2ncc(-c3nc(N[C@@H]4CCCC[C@@H]4N)c(F)c4c3C(=O)N[C@H]4C)c2c1 [Example 55, (S)-6-(((1R,2S)-2-Aminocyclohexyl)amino)-7-fluoro-1-methyl-4-(5-methylpyrazolo[1,5-a]pyridin-3-yl)-1H-pyrrolo[3,4-c]pyridin-3(2H)-one] | 251
N[C@H]1COCC[C@H]1Nc1nc(-c2cc(C(F)F)ns2)c2c(c1F)CNC2=O [Example 1, 6-((3R,4R)-3-Aminotetrahydro-2H-pyran-4-ylamino)-4-(3-(difluoromethyl)isothiazol-5-yl)-7-fluoro-1H-pyrrolo[3,4-c]pyridin-3(2H)-one] | 50.1
N[C@H]1CCCC[C@H]1Nc1nc(C#Cc2ccccc2)c2c(c1F)CNC2=O [Example 43, 6-((1R,2S)-2-Aminocyclohexylamino)-7-fluoro-4-(phenylethynyl)-1H-pyrrolo[3,4-c]pyridin-3(2H)-one] | 63.1
N[C@H]1COCC[C@H]1Nc1nc(-c2cc3n(c2)CCC3=O)c2c(c1F)CNC2=O [Example 41, 6-((3R,4R)-3-Aminotetrahydro-2H-pyran-4-ylamino)-7-fluoro-4-(1-oxo-2,3-dihydro-1H-pyrrolizin-6-yl)-1H-pyrrolo[3,4-c]pyridin-3(2H)-one] | 20
N[C@H]1COCC[C@H]1Nc1nc(-c2cc3ncccc3s2)c2c(c1F)CNC2=O [Example 25, 6-((3R,4R)-3-Aminotetrahydro-2H-pyran-4-ylamino)-7-fluoro-4-(thieno[3,2-b]pyridin-2-yl)-1H-pyrrolo[3,4-c]pyridin-3(2H)-one] | 12.6
N[C@H]1COCC[C@H]1Nc1nc(CCc2ccc(Cl)cc2)c2c(c1F)CNC2=O [Example 49, 6-((3R,4R)-3-Aminotetrahydro-2H-pyran-4-ylamino)-4-(4-chlorophenethyl)-7-fluoro-1H-pyrrolo[3,4-c]pyridin-3(2H)-one] | 63.1
N[C@H]1CCCC[C@H]1Nc1nc(/C=C/c2ccc(Cl)cc2)c2c(c1F)CNC2=O [Example 50, 6-((1R,2S)-2-Aminocyclohexylamino)-4-(4-chlorostyryl)-7-fluoro-1H-pyrrolo[3,4-c]pyridin-3(2H)-one] | 2
N[C@H]1COCC[C@H]1Nc1nc(-c2ccc(F)s2)c2c(c1F)CNC2=O [Example 12, 6-((3R,4R)-3-Aminotetrahydro-2H-pyran-4-ylamino)-7-fluoro-4-(5-fluorothiophen-2-yl)-1H-pyrrolo[3,4-c]pyridin-3(2H)-one] | 12.6
N[C@H]1CCCC[C@H]1Nc1nc(/C=C/c2ccc(F)cc2)c2c(c1F)CNC2=O [Example 45, 6-((1R,2S)-2-Aminocyclohexylamino)-7-fluoro-4-(4-fluorostyryl)-1H-pyrrolo[3,4-c]pyridin-3(2H)-one] | 2.51
N[C@H]1COCC[C@H]1Nc1nc(CCc2ccccc2)c2c(c1F)CNC2=O [Example 48] | 100
N[C@H]1COCC[C@H]1Nc1nc(-c2ccns2)c2c(c1F)CNC2=O [Example 4, 6-((3R,4R)-3-Aminotetrahydro-2H-pyran-4-ylamino)-7-fluoro-4-(isothiazol-5-yl)-1H-pyrrolo[3,4-c]pyridin-3(2H)-one] | 12.6

Other lines, results leading:

IC50 [nM] | Structure (SMILES)
0.316 | N#Cc1ccc2sc(-c3nc(N[C@@H]4CCOC[C@@H]4N)c(F)c4c3C(=O)NC4)cc2c1 [Example 21, 2-(6-((3R,4R)-3-Aminotetrahydro-2H-pyran-4-ylamino)-7-fluoro-3-oxo-2,3-dihydro-1H-pyrrolo[3,4-c]pyridin-4-yl)benzo[b]thiophene-5-carbonitrile]
0.316 | N[C@H]1CCCC[C@H]1Nc1nc(-c2cc3cc(F)ccc3s2)c2c(c1F)CNC2=O [Example 16, 6-(((1R,2S)-2-Aminocyclohexyl)amino)-7-fluoro-4-(5-fluorobenzo[b]thiophen-2-yl)-1H-pyrrolo[3,4-c]pyridin-3(2H)-one]
0.158 | N[C@H]1CCCC[C@H]1Nc1nc(-c2cc3ccncc3s2)c2c(c1F)CNC2=O [Example 15, 6-((1R,2S)-2-Aminocyclohexylamino)-7-fluoro-4-(thieno[2,3-c]pyridin-2-yl)-1H-pyrrolo[3,4-c]pyridin-3(2H)-one]
2 | N[C@H]1COCC[C@H]1Nc1nc(/C=C/c2ccc(Cl)cc2)c2c(c1F)CNC2=O [Example 51]
1.26 | CCc1cc(-c2nc(N[C@@H]3CCCC[C@@H]3N)c(F)c3c2C(=O)NC3)sn1 [Example 3, 6-((1R,2S)-2-Aminocyclohexylamino)-4-(3-ethylisothiazol-5-yl)-7-fluoro-1H-pyrrolo[3,4-c]pyridin-3 (2H)-one]
0.126 | N#Cc1ccc2sc(-c3nc(N[C@@H]4CCCC[C@@H]4N)c(F)c4c3C(=O)NC4)cc2c1 [Example 22, 2-(6-((1R,2S)-2-Aminocyclohexylamino)-7-fluoro-3-oxo-2,3-dihydro-1H-pyrrolo[3,4-c]pyridin-4-yl)benzo[b]thiophene-5-carbonitrile]
0.794 | N[C@H]1COCC[C@H]1Nc1nc(-c2cc(C3CC3)ns2)c2c(c1F)CNC2=O [Example 6, 6-((3R,4R)-3-Aminotetrahydro-2H-pyran-4-ylamino)-4-(3-cyclopropylisothiazol-5-yl)-7-fluoro-1H-pyrrolo[3,4-c]pyridin-3(2H)-one]
0.316 | Cc1nn(C)c2sc(-c3nc(N[C@@H]4CCOC[C@@H]4N)c(F)c4c3C(=O)NC4)cc12 [Example 37, 6-((3R,4R)-3-Aminotetrahydro-2H-pyran-4-ylamino)-4-(1,3-dimethyl-1H-thieno[2,3-c]pyrazol-5-yl)-7-fluoro-1H-pyrrolo[3,4-c]pyridin-3(2H)-one]
